Source: ChEMBL document CHEMBL1201862, “PubChem BioAssay data set” (2004)
Several values for one entry are separate records, joined by “and”; a condition that tells them apart may be missing. Equal values may be shown once.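 Briefly, cells in 96-well plates were exposed to five compound concentrations for 48 h, and endpoints were estimated by linear interpolation. The concentration for 50% growth inhibition is given as GI50.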 Activity calls are given as the source filed them. No stated cut-off is given here; in the data, active = GI50 up to about 1.1 µM and inactive = higher.

How the values were obtained:
Assay in all cases: DTP human tumour cell line panel, 48 h
SK-OV-3 = system: SK-OV-3
EKVX = system: EKVX
U-251 = system: U-251
NCI-H226 = system: NCI-H226
UACC-62 = system: UACC-62
ACHN = system: ACHN
HL-60 = system: HL-60
SF-268 = system: SF-268
OVCAR-3 = system: OVCAR-3
SK-MEL-28 = system: SK-MEL-28
CAKI-1 = system: CAKI-1
NCI-H23 = system: NCI-H23
SF-295 = system: SF-295
KM12 = system: KM12
CCRF-CEM = system: CCRF-CEM
TK-10 = system: TK-10
HCT-116 = system: HCT-116
SR = system: SR

Measured: GI50

C[Si](C)(C)C#C[I+]c1ccccc1
inactive: SK-OV-3 > 100 µM | EKVX 52.1 µM | U-251 38 µM | NCI-H226 > 100 µM | UACC-62 33.2 µM | ACHN 41.8 µM | HL-60 22.5 µM | SF-268 45.9 µM | OVCAR-3 32.7 µM | SK-MEL-28 39.4 µM | CAKI-1 42.8 µM | NCI-H23 36.8 µM | SF-295 > 100 µM | KM12 87.3 µM | CCRF-CEM 15.1 µM | TK-10 > 100 µM | HCT-116 27.5 µM

O/N=C1/C(=C/c2ccc(Cl)cc2)CCCC1C(NO)c1ccc(Cl)cc1 (configuration not stated)
inactive: SK-OV-3 50.8 µM | EKVX 30.1 µM | U-251 20.7 µM | UACC-62 29 µM | ACHN 31.5 µM | HL-60 18.5 µM | SF-268 15.9 µM | OVCAR-3 16.8 µM | SK-MEL-28 5.6 µM | CAKI-1 23.7 µM | NCI-H23 20 µM | SF-295 18.9 µM | KM12 19.9 µM | CCRF-CEM 19.1 µM | TK-10 31.7 µM | HCT-116 23.9 µM

COc1ccc(OC(C)C(=O)O)c2c1CCCC2=O (configuration not stated)
inactive: SK-OV-3 > 100 µM | EKVX > 100 µM | U-251 > 100 µM | NCI-H226 > 100 µM | UACC-62 > 100 µM | ACHN > 100 µM | HL-60 > 100 µM | SF-268 > 100 µM | OVCAR-3 > 100 µM | SK-MEL-28 > 100 µM | NCI-H23 > 100 µM | SF-295 > 100 µM | KM12 > 100 µM | CCRF-CEM > 100 µM | SR > 100 µM | TK-10 > 100 µM | HCT-116 > 100 µM

C/C(=N/OCCC(=O)O)C1CC1
inactive: SK-OV-3 > 100 µM | EKVX > 100 µM | U-251 > 100 µM | NCI-H226 > 100 µM | UACC-62 > 100 µM | ACHN > 100 µM | HL-60 > 100 µM | SF-268 > 100 µM | OVCAR-3 > 100 µM | SK-MEL-28 > 100 µM | CAKI-1 > 100 µM | NCI-H23 > 100 µM | SF-295 > 100 µM | KM12 > 100 µM | CCRF-CEM > 100 µM | SR 90.4 µM | TK-10 > 100 µM | HCT-116 > 100 µM

CC(C)=CCSC1CC2C(CC1(C)O)C2(C)C (configuration not stated)
inactive: SK-OV-3 15 µM and 16.2 µM | EKVX 12.9 µM and 16.1 µM | U-251 15.2 µM and 14.1 µM | NCI-H226 13.7 µM and 14.4 µM | UACC-62 15.4 µM and 17.5 µM | ACHN 17.2 µM and 17.5 µM | SF-268 18.3 µM and 16.3 µM | OVCAR-3 17.1 µM and 11.4 µM | SK-MEL-28 16.8 µM and 17 µM | CAKI-1 14.6 µM and 12.5 µM | NCI-H23 16.1 µM and 12.5 µM | SF-295 40.7 µM and 20.9 µM | KM12 19.3 µM and 14.1 µM | TK-10 18.1 µM and 16.9 µM | HCT-116 15.3 µM and 17.1 µM

COC1C(OC(=S)Nc2ccccc2)c2ccccc2N1C(C)=O (configuration not stated)
inactive: EKVX > 100 µM | U-251 > 100 µM | UACC-62 31.4 µM | ACHN 29 µM | HL-60 72.8 µM | OVCAR-3 > 100 µM | SK-MEL-28 > 100 µM | CAKI-1 85.1 µM | NCI-H23 > 100 µM | SF-295 28.4 µM | KM12 29.9 µM | CCRF-CEM 64.4 µM | SR 48.6 µM | HCT-116 > 100 µM

Cc1ccc(-c2cc(=S)n(-c3ccccc3)c3[nH]c(=S)n(-c4ccccc4)c(=N)c23)cc1
inactive: U-251 > 100 µM | NCI-H226 > 100 µM | UACC-62 > 100 µM | ACHN > 100 µM | HL-60 > 100 µM | SF-268 > 100 µM | OVCAR-3 > 100 µM | SK-MEL-28 > 100 µM | CAKI-1 > 100 µM | NCI-H23 > 100 µM | SF-295 > 100 µM | KM12 > 100 µM | CCRF-CEM > 100 µM | SR > 100 µM | TK-10 > 100 µM | HCT-116 > 100 µM

COc1ccc2c(c1)[n+]([O-])c(-c1ccccc1Cl)c(N)[n+]2[O-]
inactive: SK-OV-3 > 100 µM | EKVX > 100 µM | U-251 69.2 µM | NCI-H226 > 100 µM | ACHN 86.1 µM | HL-60 70.3 µM | SF-268 74.3 µM | OVCAR-3 40.6 µM | SK-MEL-28 > 100 µM | CAKI-1 > 100 µM | NCI-H23 37.2 µM | SF-295 > 100 µM | KM12 67.1 µM | SR > 100 µM | HCT-116 > 100 µM

COc1cc(/C=C2\C(=O)N(C(=O)c3ccc(NC(C)=O)cc3)N=C2C)ccc1O
inactive: EKVX > 100 µM | NCI-H226 > 100 µM | ACHN > 100 µM | HL-60 > 100 µM | SF-268 > 100 µM | OVCAR-3 > 100 µM | SK-MEL-28 > 100 µM | CAKI-1 > 100 µM | NCI-H23 > 100 µM | SF-295 > 100 µM | KM12 > 100 µM | CCRF-CEM > 100 µM | SR > 100 µM | TK-10 > 100 µM | HCT-116 > 100 µM

CCc1ccccc1NC(=O)C1=C(C)NC(C)=C(C(=O)Nc2ccccc2CC)C1c1ccc(NC(C)=O)cc1
inactive: SK-OV-3 > 100 µM | EKVX 60.7 µM | U-251 53.6 µM | NCI-H226 29.4 µM | ACHN 28.5 µM | HL-60 14.3 µM | SF-268 38.1 µM | OVCAR-3 33.2 µM | SK-MEL-28 22.2 µM | CAKI-1 43.1 µM | NCI-H23 42.7 µM | SF-295 54.7 µM | KM12 28.1 µM | CCRF-CEM 18.7 µM | TK-10 > 100 µM | HCT-116 35.2 µM

OCC1C(/C=C/c2ccoc2)ON2CCCC12 (configuration not stated)
inactive: EKVX > 100 µM | U-251 > 100 µM | NCI-H226 > 100 µM | ACHN > 100 µM | HL-60 > 100 µM | SF-268 > 100 µM | SK-MEL-28 > 100 µM | CAKI-1 > 100 µM | NCI-H23 > 100 µM | SF-295 > 100 µM | KM12 > 100 µM | TK-10 > 100 µM

Cc1cccc(C)c1NC(=O)C1C(=O)N(c2c(C)cccc2C)C(=O)/C1=N\NC(N)=S (configuration not stated)
inactive: EKVX > 100 µM | U-251 > 100 µM | UACC-62 > 100 µM | ACHN > 100 µM | HL-60 > 100 µM | SF-268 > 100 µM | OVCAR-3 > 100 µM | SK-MEL-28 > 100 µM | NCI-H23 > 100 µM | SF-295 > 100 µM | KM12 > 100 µM | CCRF-CEM > 100 µM | TK-10 > 100 µM | HCT-116 58.2 µM

Cc1nc(Nc2ccc(Cl)cc2)sc1C(=O)NNC(=O)C(=O)NN
inactive: SK-OV-3 22 µM | EKVX 10.4 µM | U-251 19.1 µM | NCI-H226 20.3 µM | UACC-62 15.3 µM | ACHN 26.4 µM | HL-60 17.4 µM | SF-268 27.8 µM | OVCAR-3 21.5 µM | SK-MEL-28 22.8 µM | CAKI-1 23.3 µM | NCI-H23 16.6 µM | SF-295 18.2 µM | KM12 18.3 µM | CCRF-CEM 22.2 µM | SR 27.5 µM | TK-10 29.5 µM | HCT-116 19.6 µM

Cc1c(C(=O)/C=C/c2ccc(N(C)C)cc2)c(=O)n(-c2ccccc2)n1C
inactive: SK-OV-3 > 100 µM | EKVX > 100 µM | U-251 > 100 µM | NCI-H226 > 100 µM | UACC-62 > 100 µM | ACHN > 100 µM | SF-268 > 100 µM | OVCAR-3 > 100 µM | SK-MEL-28 > 100 µM | CAKI-1 > 100 µM | NCI-H23 > 100 µM | SF-295 > 100 µM | KM12 > 100 µM | CCRF-CEM > 100 µM | TK-10 > 100 µM | HCT-116 > 100 µM

CC(C)C(NCc1c2ccccc2nc2ccccc12)C(=O)O (configuration not stated)
inactive: SK-OV-3 > 100 µM | EKVX 40.6 µM | U-251 91.8 µM | NCI-H226 > 100 µM | ACHN 35 µM | HL-60 25.3 µM | SF-268 36.7 µM | OVCAR-3 39.5 µM | SK-MEL-28 87.5 µM | CAKI-1 28.6 µM | NCI-H23 41.8 µM | SF-295 81.5 µM | KM12 33.3 µM | CCRF-CEM 23.8 µM | SR 20.6 µM | TK-10 > 100 µM | HCT-116 26.4 µM

O=[N+]([O-])c1cccc(C2N3CCCCC3[C@@H]3c4[nH]c5ccccc5c4CCN23)c1 (some centres not stated)
inactive: SK-OV-3 17.8 µM | EKVX 23.1 µM | U-251 14.1 µM | UACC-62 6.79 µM | ACHN 15.9 µM | HL-60 10.1 µM | SF-268 12 µM | OVCAR-3 15.7 µM | SK-MEL-28 16.3 µM | CAKI-1 28.4 µM | NCI-H23 12.4 µM | SF-295 15.1 µM | CCRF-CEM 13.2 µM | TK-10 14.4 µM

c1ccc(-c2nnc(-c3nn(-c4ccccc4)c4nc5ccccc5nc34)o2)cc1
inactive: SK-OV-3 > 100 µM | EKVX > 100 µM | U-251 85.1 µM | NCI-H226 18.2 µM | UACC-62 69.2 µM | ACHN 92.3 µM | HL-60 20.6 µM | SF-268 > 100 µM | OVCAR-3 66.8 µM | SK-MEL-28 > 100 µM | CAKI-1 > 100 µM | NCI-H23 41.2 µM | SF-295 > 100 µM | KM12 > 100 µM | CCRF-CEM 18.6 µM | TK-10 > 100 µM | HCT-116 34.8 µM
